This experiment relates to HSV type1 H29 Strain. Nature of the experiment: Yield reduction assay with HSV type 1 H29 strain. In kind it is cell-based, herpes simplex virus type 1. As to conditions: read-out: ED50 (the source's name). The text has this: (1) Examples of Mutual Enhancement of the Antiherpetic Activities of 2-Acetylpyridine-4-(2-morpholinoethyl)thiosemicarbazone (compound A) and Acyclovir (ACV).
^a Yield reduction assay with HSV type1 H29 Strain

pEC50: −log10 of the molar value. Where two headings read alike, the source gives them in different places.

On to `CC(=NNC(=S)NCCN1CCOCC1)c1ccccn1` [Compound A, 2-Acetylpyridine-4-(2-morpholinoethyl)thiosemicarbazone], for which the pEC50 was 5.30 (Addition: none) and 6.15 (Compound A with addition of 0.2 μM ACV).

As for `Nc1nc2c(ncn2COCCO)c(=O)[nH]1` [ACV, 9-(2-hydroxyethoxymethyl)guanine], the pEC50 was 7.70 (ACV with addition of 1 μM Compound A) and 6.22 (Addition: none).

Source of the values: patent US4758572A, “Antiviral combinations” (Burroughs Wellcome Co., priority 1983, dated 1988).
